Key:
[1] = tested on: fluconazole-resistant C. albicans strains CaCi2, 8 and 17; experiment: Filamentation, liquid assay; assay type: cell-based; details: 5 μM
Description: (§1) For liquid assays, C. albicans strains were grown overnight in YPD with DMSO or 5 μM gepinacin. After dilution to an OD600 of 0.1 in Spider media, growth was continued for an additional 3 hours with agitation at 37° C. in the presence of compound before transfer to a 24 well plate for imaging (Shen, et al. (2008) Proc Natl Acad Sci USA 105, 20918-20923). Assays with S. cerevisiae strain Sigma 1278B on solid media were performed as previously described (Liu, et al. (1994) Science 266, 1723-1726) except gepinacin was added directly to partially cooled plate media and colonies were imaged after growth for 6 or 9 days at 30° C.
Because of its role in tissue invasion, a key determinant of fungal virulence is the ability to switch between yeast and filamentous forms (Shapiro, et al. (2011) Microbiol Mol Biol Rev 75, 213-267; Sudbery, (2011) Nat Rev Microbiol 9, 737-748; Noble, et al. (2010) Nat Genet 42, 590-598). A previous report has shown that mature GPI-anchors are required for this process (Richard, et al. (2002) Microbiology 148, 2125-2133). […] In the absence of gepinacin, all three drug-resistant clinical isolates underwent marked transformation to large macroscopic mats, readily visible to the eye. […]

PIG-W = molecular target: T1, PIG-W (Homo sapiens, UniProt Q7Z7B1); experiment: In vitro acylation assay with membranes of the PIG-W strain; assay type: biochemical; details: membranes of low copy plasmid strain
T1 construct: expressed in transfected cells; host or cells: S. cerevisiae BY4741-derived gwt1 deletion shuttle strain carrying a pAG415GPD-based PIG-W plasmid
T1 sequence (Q7Z7B1 1-504): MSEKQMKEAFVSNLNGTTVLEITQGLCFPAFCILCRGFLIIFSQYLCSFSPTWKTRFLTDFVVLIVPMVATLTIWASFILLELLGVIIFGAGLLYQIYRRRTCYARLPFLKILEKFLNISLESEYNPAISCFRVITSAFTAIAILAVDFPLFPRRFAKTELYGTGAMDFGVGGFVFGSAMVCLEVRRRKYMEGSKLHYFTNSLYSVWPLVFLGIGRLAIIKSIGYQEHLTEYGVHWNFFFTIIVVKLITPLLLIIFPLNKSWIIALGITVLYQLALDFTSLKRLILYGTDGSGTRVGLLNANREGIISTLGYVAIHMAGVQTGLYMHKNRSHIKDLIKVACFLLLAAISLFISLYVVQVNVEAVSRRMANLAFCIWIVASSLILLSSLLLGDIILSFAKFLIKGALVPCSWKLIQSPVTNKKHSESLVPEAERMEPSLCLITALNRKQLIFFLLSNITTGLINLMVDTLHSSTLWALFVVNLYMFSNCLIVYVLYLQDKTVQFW
Description: Photographs were taken after 24 hours. DMSO-treated cultures have large, dense colonies of C. albicans which are not present in gepinacin-treated cultures. (B) Anti-fungal susceptibility testing of S. cerevisiae strains in which the endogenous GWT1 gene had been replaced by plasmid-driven expression of the human gene (PIG-W), or the fungal gene (GWT1). CEN plasmids are low copy, […] plasmids are high copy.
Experiments were performed using a previously published protocol (Umemara, et al. (2003) J Biol Chem 278, 23639-23647) with the following modifications; UDP[^3H]GlcNAc was used instead of [^14C] and TLC plates were imaged by autoradiography. Lipid extracts were treated overnight with phosphatidylinositol-specific phospholipase C to confirm that the band identified as GlcN-(acyl)PI was resistant to cleavage (data not shown).

Candida glabrata = experiment: Antifungal susceptibility testing; assay type: cell-based
Description: (§2) Sensitivity to gepinacin was determined in 96-well, flat bottom microtiter plates using a modification of the NCCLS broth microdilution protocol CLS M27-A3 and RPMI as culture medium. Fungi were inoculated at ˜10^3 cells per ml and incubated for 48 hours at 37° C. after which plates were sealed, shaken and the optical density read at 600 nm (OD600) on a Tecan Safire 2 plate reader. All samples were run in duplicate or triplicate and assays were repeated at least once. Results are expressed as fraction of growth in the absence of compound and the mean and standard deviation are plotted. For the mold A. terreus, inoculum was 10^4 cells per ml and plates were incubated at 35° C. for 48 hours in the dark. Plates were then visually scored as specified by CLSI document M38-A2 to determine the MIC50 and MIC80.

S. cerevisiae = experiment: Antifungal susceptibility testing; assay type: cell-based
Description: as §2

[2] = tested on: S. cerevisiae strain Sigma 1278B; experiment: Filamentation on solid media; assay type: cell-based; details: 5 μM, 6 days
Description: as §1

NIH 3T3 cells = experiment: Co-culture of mammalian cells and C. albicans: mammalian cells; assay type: cell-based; details: 40 μM, 24 hours
Description: For co-culture experiments, confluent layers of NIH 3T3 cells were established in 6-well plates. The following day, the medium was replaced with RPMI1640+10% FBS containing the amphotericin-resistant strain CaAmphR at […] colony forming units per ml and 40 μM gepinacin or an equivalent amount of DMSO. Co-cultures were incubated for 24 hours at 37° C. in a micro-isolator box. Images were acquired on a Nikon Eclipse TS100 microscope at 40×.
Having determined the target of gepinacin in fungi, gepinacin's effect on the human ortholog of Gwt1, PIG-W, was examined. To determine if gepinacin remained active under mammalian cell culture conditions cultured fungi were cultured (either an amphotericin B-resistant (FIG. 3a) or fluconazole-resistant (data not shown) isolate of C. albicans) and mammalian cells together with 40 μM gepinacin. […] PIG-W (and GPI anchor biosynthesis) is not essential for mammalian cells in culture.

COc1ccc(NC(=O)COc2cccc(OCC(C)C)c2)cc1 [gepinacin]
filamentation in Spider medium [1]: completely blocked | activity of the human enzyme (GlcN-(acyl)PI formation) (PIG-W): not inhibited | growth inhibition (Candida glabrata): inhibited the growth | growth inhibition (S. cerevisiae): inhibited the growth | filamentation on solid media [2]: blocked filamentation | effect on mammalian cells in co-culture (NIH 3T3 cells): no effect
